The values below come from US10800734B2, “Memantine compounds and their preparation and uses thereof” (Sunshine Lake Pharma Co., Ltd., priority 2016, dated 2020).

The structures appear in SMILES notation. Read-outs that look alike come from different tables or passages of the source.

The term AUC(0-t) denotes the area under the concentration-time curve up to a stated or last time point. A higher AUC(0-t) goes with more exposure. By Cmax is commonly meant the maximum level reached in the sampled fluid or tissue. Broadly, the Tmax is the time from dosing to the highest level.

Series [1] is classed as in vitro ADME. The following applies: human, microsomes, 1 μM, pH 7.4. The protocol: (§1) Analytical LC/MS/MS systems: Agilent 1200 Series vacuum degasser, dual-injection pump, orifice autosampler, column incubator, charged spray ionization (ESI) source, and Agilent G6430 three-stage quadrupole mass spectrometer. The quantitative analysis is performed in the MRM mode, with the following MRM conversion parameters:
Analytical Agilent Poroshell HPH-C18: 2.1×50 mm, 2.7 μM column, 20 μL of sample was injected. Conditions: mobile phase with ammonium formate+0.1% formic acid (A) and methanol+2 mM ammonium formate+0.1% formic acid (B). The flow rate was 0.3 mL/min. The mobile phase gradient is as follows: […]
Agilent 6330 Series LC/MS/MS spectrometer was equipped with G1312A binary injection pump, G1367A automatic sampler and MS/MS detector; LC/MS/MS was used with ESI source. Suitable cationic model treatments and MRM conversion were used for each analyte using standard solution for optimal analysis. The Agilent Poroshell HPH-C18 column was used during the analysis with a specification of 100×4.6 mm I.D., 5 μM. The mobile phase included ammonium formate+0.1% formic acid (A) and methanol+2 mM ammonium formate+0.1% formic acid (B). The flow rate was 0.3 mL/min; the column temperature was maintained at 40° C.; 20 μL of sample was injected.
A human liver microsomal incubation system was used for the testing. The incubation mixtures included human or rat liver microsomes (0.5 mg protein/mL), the tested compound was provided at 1 μM. The compound was dissolved in DMSO and diluted with acetonitrile water and mixed with a mixture of liver microparticle potassium phosphate buffer solution (pH=7.4). The above operations were done on wet ice, and incubated in a thermostatic incubator at 37° C. At different time points (0, 60 and 120 min), ice-cold acetonitrile was added to terminate the reaction. NADPH was not added during the reaction, and the effect of esterase on its conversion was examined. Samples were stored at −80° C. until LC/MS/MS analysis was performed.
The conversion of the compounds of the disclosure to active adamantane compound, which is memantine in the human liver microsome was determined by LC/MS/MS.

Series [2] in a line: In vivo pharmacokinetics after intramuscular administration in rats. The protocol:
Legend format: tested compound/dose (mg/kg)/converted active adamantane compound, which is memantine.
as §1
Waters XBridge TMC18, 2.1×30 mm, 3.5 μM column; 20 μL of sample was injected in each run. Conditions: The mobile phase included […]+2 mM ammonium formate+0.1% formic acid (A) and methanol+2 mM ammonium formate+0.1% formic acid (B). The flow rate was 0.35 mL/min. The mobile phase gradient is as follows: […]
Additional instruments and reagents included Agilent 6330 Series LC/MS/MS spectrometer equipped with a G1312A Binary Injection Pump, G1367A autosampler and MS/MS Detector for analysis; LC/MS/MS spectrometer with ESI source. Suitable cationic model treatments and MRM conversion were used for each analyte using standard solution for optimal analysis. Waters XBridge TMC18 was used with specifications of 2.1×30 mm, 3.5 μM. The reaction was carried out with ammonium formate+2 mM ammonium formate+0.1% formic acid (A) and methanol+2 mM ammonium formate+0.1% formic acid (B). The flow rate was 0.35 mL/min; the column temperature was maintained at 40° C.; 10 μL of sample was injected.
This example conducted pharmacokinetic studies of various compounds of the present disclosure in rats. The compounds were subjected to pretreatment including grinding and sieving, and were then added to a mixture formed by dissolving and dispersing in Tween-20 and/or Span-20. The mixtures were uniformly dispersed and fixed. The suspensions were pulverized by a ball mill […]. Memantine (MJG, 17.5 mg/kg) or tested compounds (75 or 37.5 mg/kg) were administered by intramuscular administration. Whole blood was collected at 0.25, 1, 2, 5, 7, 24, 48, 72, 96, 120, 148 and 196 h, was centrifuged at 12,000 g for 2 minutes. Plasma was collected and stored at −20° C. or −70° C. until the LC/MS/MS analysis was performed.

The mark [3] stands for this setting: rat, im, solution, 17.5 mg/kg, memantine in plasma.

As for `CCCCCCCCCCCCCCCC(=O)OCOC(=O)NC12CC3CC(C)(CC(C)(C3)C1)C2` [Compound 4], the results for the “Percentage of Remaining or Converted Active Adamantane Compound” value in series [1] (1 h) and in series [1] (2 h) were 25.3% and 34%, respectively.
For the compound `CC12CC3CC(C)(C1)CC(NC(=O)OCOC(=O)c1ccccc1)(C3)C2` [Compound 2], the “Percentage of Remaining or Converted Active Adamantane Compound” value in series [1] (1 h) is on record as 134%; in series [1] (2 h) it was 118%. Moreover, the T½ result in series [2] (suspension, 75 mg/kg, converted memantine in plasma) is “too high to be measurable”.
For `CCCCCCCCCCCC(=O)OCOC(=O)NC12CC3CC(C)(CC(C)(C3)C1)C2` [Compound 3], the “Percentage of Remaining or Converted Active Adamantane Compound” value in series [1] (1 h) and in series [1] (2 h) was 35.6% throughout.
`CC12CC3CC(C)(C1)CC(NC(=O)OCOC(=O)Cc1cccc4ccccc14)(C3)C2` [Compound 1]: the results for the “Percentage of Remaining or Converted Active Adamantane Compound” value in series [1] (1 h) and in series [1] (2 h) were 108% and 101%, respectively.
On to `CC12CC3CC(C)(C1)CC(N)(C3)C2` [MJG, memantine], for which, in series [1] (1 h), the “Percentage of Remaining or Converted Active Adamantane Compound” value came to 98%. In series [1] (2 h), the “Percentage of Remaining or Converted Active Adamantane Compound” value amounted to 98%. Further, in series [2] (setting [3]), the AUC(0-t) came to 11800 ng·h/mL, the Cmax came out at 1940 ng/mL and the Tmax is 1.33 h. Moreover, the half-life in series [2] (rat, plasma, im, 17.5 mg/kg, solution, 17.5 mg/kg, memantine in plasma, read-out: T½ (converted)) was approximately 240 min. Besides, the T½ in series [2] (solution, 17.5 mg/kg, memantine in plasma) is reported as 4 h.
